The values that follow are results of earlier work, collected in patent US20240197726A1, “NOVEL TETRAHYDROISOQUINOLINE ALKALOID COMPOUND CONTAINING MACROCYCLE” (THE UNIVERSITY OF TOKYO, priority 2021, published 2024).

Where two headings read alike, the source gives them in different places.

What all share (conditions): cited from earlier work
In series [1] the test system is HCT-116 colorectal cancer cells.
The subject of series [2] is MDA-MB-231 breast cancer cells.
Series [3] concerns MCF-7 breast cancer cells.
For the next series, the system named is A549 lung cancer cells.
The test system of series [4] is HT-29 colorectal cancer cells.
Series [5] has as its system NCI-H23 lung cancer cells.
Series [6] concerns NCI-H460 lung cancer cells.
Where [7] appears, read: HCT-116, reference values from literature (Leal et al. Br. J Pharmacol, 2010), read-out: GI50 value: 50% growth inhibitory concentration.
The mark [8] stands for this setting: MDA-MB-231, reference values from literature (Leal et al. Br. J Pharmacol, 2010), read-out: GI50 value: 50% growth inhibitory concentration.
Where [9] appears, read: MCF-7, reference values from literature (Leal et al. Br. J Pharmacol, 2010), read-out: GI50 value: 50% growth inhibitory concentration.
[10] abbreviates: A549, reference values from literature (Leal et al. Br. J Pharmacol, 2010), read-out: GI50 value: 50% growth inhibitory concentration.
Where [11] appears, read: HT-29, reference values from literature (Leal et al. Br. J Pharmacol, 2010), read-out: GI50 value: 50% growth inhibitory concentration.
The mark [12] stands for this setting: NCI-H23, reference values from literature (Leal et al. Br. J Pharmacol, 2010), read-out: GI50 value: 50% growth inhibitory concentration.
The mark [13] stands for this setting: NCI-H460, reference values from literature (Leal et al. Br. J Pharmacol, 2010), read-out: GI50 value: 50% growth inhibitory concentration.
The mark [14] stands for this setting: HCT-116 colorectal cancer cells, comparative value based on the literature, read-out: antitumor activity GI50 value: 50% growth inhibitory concentration.
[15] abbreviates: MDA-MB-231 breast cancer cells, comparative value based on the literature, read-out: antitumor activity GI50 value: 50% growth inhibitory concentration.
[16] abbreviates: MCF-7 breast cancer cells, comparative value based on the literature, read-out: antitumor activity GI50 value: 50% growth inhibitory concentration.
[17] abbreviates: A549 lung cancer cells, comparative value based on the literature, read-out: antitumor activity GI50 value: 50% growth inhibitory concentration.
The mark [18] stands for this setting: HT-29 colorectal cancer cells, comparative value based on the literature, read-out: antitumor activity GI50 value: 50% growth inhibitory concentration.
Setting [19] is: NCl-H23 lung cancer cells, comparative value based on the literature, read-out: antitumor activity GI50 value: 50% growth inhibitory concentration.
Where [20] appears, read: NCl--H460 lung cancer cells, comparative value based on the literature, read-out: antitumor activity GI50 value: 50% growth inhibitory concentration.

As for `COc1cc2c(cc1O)CCN[C@]21CS[C@@H]2c3c(OC(C)=O)c(C)c4c(c3[C@H](COC1=O)N1[C@@H]2[C@H]2c3c(cc(C)c(OC)c3O)C[C@@H]([C@@H]1O)N2C)OCO4` [Ecteinascidin 743, reference compound], the GI50 in series [1] (setting [7]) is 4.9 nM; in series [2] (setting [8]), 3.9 nM; in series [3] (setting [9]), 2.6 nM; with A549 lung cancer cells (setting [10]) it was 10.4 nM; in series [4] (setting [11]), 9.8 nM; in series [5] (setting [12]) it was 2.1 nM. Further, the GI50 in series [6] (setting [13]) was 1.8 nM.

Consider `COc1c(C)cc2c(c1C)[C@H]1N(C)[C@@](C)(C2)C(C)N2C1(C)[C@@H]1CCC3(CCCC4=C3Cc3ccc(C)cc34)C(=O)OC[C@@]2(C)c2c3c(c(C)c(C)c21)OCO3` (stereo partly shown) [drawing 159], for which the GI50 in series [1] (setting [14]) was 6.4 nM; in series [2] (setting [15]) it was 3.4 nM; in series [3] (setting [16]), 1.7 nM; with A549 lung cancer cells (setting [17]) it was 1.3 nM; in series [4] (setting [18]), 2.4 nM; in series [5] (setting [19]) it was 5.3 nM. Besides, the GI50 in series [6] (setting [20]) is 1.5 nM.

As to `COc1c(C)cc2c(c1C)[C@H]1N(C)[C@@](C)(C2)C(C)N2C1(C)[C@@H]1CCC3(CCCC4=C3Cc3ccc(C)cc34)C(=O)OC[C@@]2(C)c2c3c(c(C)c(C)c21)OCO3` (stereo partly shown) [drawing 163], the GI50 in series [1] (setting [14]) was 6.4 nM; in series [2] (setting [15]), 3.4 nM; in series [3] (setting [16]) it was 1.7 nM; in the series on A549 lung cancer cells (setting [17]), 1.3 nM; in series [4] (setting [18]), 2.4 nM; in series [5] (setting [19]), 5.3 nM. In addition, in series [6] (setting [20]), the GI50 was 1.5 nM.

With `COc1ccc2[nH]c3c(c2c1)CCN[C@]31CS[C@@H]2c3c(OC(C)=O)c(C)c4c(c3[C@H](COC1=O)N1[C@@H]2[C@H]2c3c(cc(C)c(OC)c3O)C[C@@H]([C@@H]1O)N2C)OCO4` [lurbinectedin, reference compound], the GI50 in series [1] (setting [7]) was 6.4 nM; in series [2] (setting [8]), 3.4 nM; in series [3] (setting [9]) it was 1.7 nM; with A549 lung cancer cells (setting [10]) it was 1.3 nM; in series [4] (setting [11]) it was 2.4 nM; in series [5] (setting [12]), 5.3 nM. Further, the GI50 in series [6] (setting [13]) is 1.5 nM.
